Test system: adriamycinresistente S 180 Maus Sarcomazellen
Experiment: MTT proliferation/cytotoxicity assay on adriamycin-resistant S 180 sarcoma cells, with or without adriamycin (sensitisation)
Assay type: cell-based
Settings: S-180, 144 h, six days culture, MTT readout
Description: Beispielsweise wurde die Sensibilisierung durch die Verbindungen A = 4-[N-(2-Hydroxy-2-methyl-propyl)-ethanolamino]-2,7-bis-(2,6-dimethyl-morpholino)-6-phenyl-pteridin, B = 4-Ethyl-ethanolamino-2,7-bis(2,6-dimethyl-morpholino)-6-phenyl-pteridin, C = 4-Ethanol-isopropanolamino-2,7-bis(2,6-dimethyl-morpholino)-6-phenyl-pteridin, D = 4-Diethanolamino-2,7-bis(2,6-dimethyl-morpholino)-6-phenyl-pteridin und E = 4-[N-(2-Hydroxy-2-methyl-propyl)-ethanolamino]-2,7-bis(cis-2,6-dimethyl-morpholino)-6-phenyl-pteridin am Beispiel von gegen Adriamycin resistenten Zellen wie folgt geprüft: Proliferierende, adriamycinresistente S 180 Maus Sarcomazellen werden in Anwesenheit unterschiedlicher Konzentrationen Testsubstanzen für sechs Tage kultiviert. Zytotoxisch oder zytostatisch wirkende Konzentrationen der Testsubstanzen werden durch vermindertes Zellwachstum oder durch das Absterben der Zellen angezeigt. Endpunkt des Assays ist die Zahl der lebenden Zellen pro Kultur, die indirekt ermittelt wird, indem die Eigenschaft vitaler Zellen, den Farbstoff MTT [= 3-(4,5-Dimethylthiazol-2-yl)-2,5-diphenyltetrazoliumbromid] zum farbigen Formazan zu reduzieren, ausgenützt wird. Als IC50 wird die Konzentration einer Testsubstanz bezeichnet, welche die Zahl der vitalen Zellen pro Kulturgefäß auf 50 % der unbehandelten Kontrolle reduziert. Die Testsubstanzen werden sowohl in Abwesenheit von Adriamycin als auch in Anwesenheit einer unter Kulturbedingungen nicht proliferationshemmend wirkenden Menge Adriamycin getestet. Pro Testsubstanz erhält man daher zwei IC50-Werte, einen in Anwesenheit (IC50 ADR), den anderen in Abwesenheit (IC50) von Adriamycin. Die Differenz der Zehnerlogarithmen der beiden IC50-Werte: Δ = 1gIC50-1gIC50 ADR ist ein Maß für die Erhöhung der Zytotoxizität der Testsubstanz durch Adriamycin.
Exponentiell wachsende, adriamycinresistente oder adriamycinsensitive S 180-Zellen werden in 96-Loch Flachboden-Mikrotiterplatten zu 2000 Zellen pro Loch in 100 »l Wachstumsmedium (RPMI-1640, das 10 % fötales Rinderserum enthält) ausplattiert. Die Kulturplatten werden im Brutschrank bei 37°C, 5 % CO₂ und 100 % relativer Luftfeuchtigkeit inkubiert. Nach 24 Stunden werden pro Loch 50 »l Wachstumsmedium, das unterschiedliche Konzentrationen an Testsubstanz enthält, und 50 »l Wachstumsmedium mit oder ohne Adriamycin hinzugefügt. Im Anschluß an eine weitere sechstägige Kultivierung werden 50 »l Tetrazoliumsalzlösung [5 mg 3-(4,5-Dimethylthiazol-2-yl)-2,5-diphenyltetrazoliumbromid pro ml Phosphat-gepufferter Salinelösung, vor Gebrauch 1:5 (v/v) mit RPMI-1640 verdünnt] in jedes Loch pipettiert. Nach vier Stunden Inkubation wird das Kulturmedium vorsichtig abgesaugt und intrazellulär gebildetes Formazan durch 150 »l Dimethylsulfoxid pro Loch solubilisiert. Die Platten werden kurz geschüttelt und die optische Dichte bei 570 nm mit einem Photometer wie einem Dynatech MR-600-Gerät gemessen. Die Bildung des farbigen Formazans durch Reduktion des Tetrazoliumsalzes ist proportional der Zahl der lebenden Zellen. Die Mittelwerte von Dreifach-Bestimmungen wurden bei der Berechnung der IC50-Werte verwendet (Verdünnungsstufe: 1:2).

[1] = Tabelle 2, Adriamycin 100 ng/ml

SMILES | IC50 (Tabelle 1, Adriamycin 0 ng/ml) [µg/mL] | IC50 (Tabelle 1, Adriamycin 25 ng/ml) [µg/mL] | IC50 (Tabelle 2, Adriamycin 0 ng/ml) [µg/mL] | IC50 [1] [µg/mL]
CC1CN(c2nc(N(CCO)CC(C)(C)O)c3nc(-c4ccccc4)c(N4CC(C)OC(C)C4)nc3n2)CC(C)O1 (centres unmarked) [A, 4-[N-(2-Hydroxy-2-methyl-propyl)-ethanolamino]-2,7-bis-(2,6-dimethyl-morpholino)-6-phenyl-pteridin] | 20.7 | 1.49 | 20.7 | < 0.5
CCN(CCO)c1nc(N2CC(C)OC(C)C2)nc2nc(N3CC(C)OC(C)C3)c(-c3ccccc3)nc12 (centres unmarked) [B, 4-Ethyl-ethanolamino-2,7-bis(2,6-dimethyl-morpholino)-6-phenyl-pteridin] | > 31.6 | 4.43 | > 31.6 | 0.77
CC(O)CN(CCO)c1nc(N2CC(C)OC(C)C2)nc2nc(N3CC(C)OC(C)C3)c(-c3ccccc3)nc12 (centres unmarked) [C, 4-Ethanol-isopropanolamino-2,7-bis(2,6-dimethyl-morpholino)-6-phenyl-pteridin] | 12.8 | 3.77 | 12.8 | 0.82
CC1CN(c2nc(N(CCO)CCO)c3nc(-c4ccccc4)c(N4CC(C)OC(C)C4)nc3n2)CC(C)O1 (centres unmarked) [D, 4-Diethanolamino-2,7-bis(2,6-dimethyl-morpholino)-6-phenyl-pteridin] | 14.4 | 5.78 | 14.4 | 1.57
C[C@@H]1CN(c2nc(N(CCO)CC(C)(C)O)c3nc(-c4ccccc4)c(N4C[C@@H](C)O[C@@H](C)C4)nc3n2)C[C@H](C)O1 [E, 4-[N-(2-Hydroxy-2-methyl-propyl)-ethanolamino]-2,7-bis(cis-2,6-dimethyl-morpholino)-6-phenyl-pteridin] | 7.5 | 0.5 | 7.5 | 0.1

— patent EP0362645B1, “Use of pteridines in the prevention of the primary and secondary resistance during chemotherapy, and medicaments containing these compounds” (Dr. Karl Thomae GmbH, priority 1988, dated 1990)
